According to patent US9351998B2, “Methods of nourishing animals” (MariCal, Inc., priority 2008, dated 2016):

How the values were obtained:
[1] = test system: avian CaSR; test: FURA2 ratio imaging fluorimetry of HEK cells stably expressing avian (chicken) CaSR; type: cell-based
From the text: All methods and equipment utilized to perform experiments on HEK cells have been reported previously (Gama, L. and Breitwieser, G. E. 1998. A carboxyl-terminal domain controls the cooperativity for extracellular Ca2+ activation of the human calcium sensing receptor. A study with receptor-green fluorescent protein fusions. J. Biol. Chem. 273, 29712-29718; Bai, M., Quinn, S., Trivedi, S., Kifor, 0., Pearce, S. H., Pollak, M. R., Krapcho, K., Hebert, S. C. and Brown, E. M. 1996. Expression and characterization of inactivating and activating mutations in the human Ca2+o-sensing receptor. J. Biol. Chem. 271, 19537-19544). Untransfected HEK cells or, alternatively, cells transfected and expressing CaSR protein were cultured in Dulbecco's Modified Eagle Medium containing 10% fetal bovine serum and 1% penicillin-streptomycin in 75 cm^2 flasks until they reached confluence. Media was removed from the flasks and cells were loaded by exposure to Loading Buffer (125 mM NaCl, 4 mM KCl, 1.0 mMCaCl2, 1.0 mM MgCl2, 1 mM NaH2PO4, 20 mM HEPES, 1 gm/liter bovine serum albumin, and 1 gm/l glucose, pH ˜7.4, osmolality ˜285) containing 4.1 micromolar FURA2-AM (Molecular Probes Inc. Eugene, Oreg.) for 2 hr. Cells were then scraped from the surface of the flask using a standard cell scraper (Costar 3010, Corning Inc.). Cells were then pelleted from the suspension by low speed centrifugation to remove loading buffer and rinsed twice to remove extracellular FURA2 dye by two sequential suspensions and pelleting steps using low speed centrifugation. Immediately prior to the start of the experiment, cells were resuspended in various experimental buffers for analyses as described below. The Standard Experimental Buffer used for many studies was composed of: 125 mM NaCl, 4 mM KCl, 0.5 mMCaCl2, 0.5 mM MgCl2, 20 mM HEPES, 1 g/l glucose, pH ˜7.4, osmolality ˜285. All other buffers were variations on this basic composition where specific components within the Standard Experimental Buffer were varied while the remaining components were held constant.
Cell suspensions consisting of a total volume of 3 ml were analyzed in a PTI fluorimeter (PTI Model 814 Photomultiplier Detection System equipped with SC-500 Shutter Controller and PTI Driver and Analysis Software) within approximately 20 min after exposure to experimental buffers. Data was acquired using standard ratio image analysis as described previously using a data acquisition rate of 1.3 sec. for 500 or 1000 second intervals.
In selected experiments, the detergent Triton X-100 was added in order to lyse the cells and quantify differences in FURA2 ratio fluorescence. Triton X-100 was added to the cells to obtain a maximal fluorescence signal from the FURA2 for purposes of quantification.
The ability of the CaSR modulator MC0100 to potentiate the response of avian and mammalian CaSRs to the chelated mineral amino acid complex, ZnPro, was tested. For avian CaSR experiments, three individual aliquots from a single pool of HEK cells that stably express the recombinant avian CaSR protein were used for ratio imaging fluorimetry assays of CaSR activation generally as described in Example 6 herein. […] In all aliquots, the detergent Triton X-100 was added as the last addition to lyse the cells (FIG. 29A).
From a single pool of HEK cells stably expressing the avian CaSR, aliquots of cells were removed and analyzed using ratio imaging fluorimetry generally as described in Example 6 herein. After a standard addition of Ca++ to a final concentration of 2.5 mM, either 0.0025%, 0.025% or 0.25% Zinc Proteinate was added followed by a second addition of Ca++ to a final concentration of 7.5 mM. Subsequently, an aliquot of the detergent Triton X-100 was added to lyse the cells. […] The magnitude of the subsequent CaSR response to Ca++ was reduced via increasing Zn Proteinate stimulation.
Fluorimetry analysis was performed on HEK cells expressing the recombinant chicken CaSR protein generally as described in Example 6 herein.

[2] = test system: chick CaSR; test: Plasma calcium in chicks after single oral gavage of CaSR modulator; type: in vivo; details: various doses, 2 week old and newly hatched chicks, various intervals of time
From the text: Male chicks (either newly hatched or 2 weeks of age) were gavaged with a single application of various doses of the specific CaSR modulator (MC 0100), a specific pharmacological modulator of CaSRs, to increase the apparent sensitivity of the CaSR to agonists such as calcium. An increase in the apparent sensitivity of the chick CaSR to extracellular calcium is expected to result in the “resetting” of the normal range of calcium within the chick to a lower level of plasma calcium since the functioning CaSR are all shifted leftward (more sensitive) on the dose response curve of CaSR for calcium.

[3] = Nonstressed pen trial, serum parameters of broiler chickens given feed additives; type: in vivo, broiler chickens (Cobb); details: feed additive, MC0100 10 mg/kg or Mintrex Zn 250 mg/kg, Day 14
From the text: Male Cobb strain broiler chickens were reared in standard minipens and fed standard feed.

Structure (SMILES): COc1cccc([C@@H](C)NCCCc2ccccc2)c1 [MC0100]
- effect of prior modulator on CaSR response to 0.25% Mintrex Zn ([1]; 1 micromolar MC0100, buffer 1.5 mM Ca2+): potentiated the response
- effect of modulator on CaSR response to ZnPro ([1]; MC0100 added before ZnPro): potentiates the response
- CaSR response to the modulator itself ([1]; MC0100 at final 1 micromolar, buffer 1.5 mM Ca2+): yielded a response
- CaSR response to stepwise additions ([1]; after addition of 2.5 mM Ca++ (FIG. 36)): increased responses
- plasma calcium [2]: dose dependent decrease
- mean serum calcium concentration compared to Control [3]: significant reductions
